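96-well plates; 48 h exposure; 5 concentrations. Endpoints by linear interpolation between flanking doses. Not reached: highest tested concentration assigned. TGI marks complete inhibition of growth.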
Experiments:
Assay in all cases: growth of human tumour cells (NCI), 48 h
OVCAR-8 ovarian = system: OVCAR-8 ovarian
SR leukemia = system: SR leukemia
HCC-2998 colon = system: HCC-2998 colon
CCRF-CEM leukemia = system: CCRF-CEM leukemia
DMS 114 small cell lung = system: DMS 114 small cell lung
HCT-15 colon = system: HCT-15 colon
NCI-H226 lung = system: NCI-H226 lung
HT29 colon = system: HT29 colon
CAKI-1 renal = system: CAKI-1 renal
RXF 393 renal = system: RXF 393 renal
LXFL 529 NSCLC = system: LXFL 529 NSCLC
KM12 colon = system: KM12 colon
786-0 renal = system: 786-0 renal
SN12C renal = system: SN12C renal
HOP-92 NSCLC = system: HOP-92 NSCLC
OVCAR-3 ovarian = system: OVCAR-3 ovarian
KM20L2 colon = system: KM20L2 colon
M19-MEL melanoma = system: M19-MEL melanoma
COLO 205 colon = system: COLO 205 colon
EKVX NSCLC = system: EKVX NSCLC
DLD-1 colon = system: DLD-1 colon
HL-60(TB) leukemia = system: HL-60(TB) leukemia
K-562 leukemia = system: K-562 leukemia
SF-295 CNS = system: SF-295 CNS
SK-MEL-28 melanoma = system: SK-MEL-28 melanoma
U251 CNS = system: U251 CNS
OVCAR-5 ovarian = system: OVCAR-5 ovarian
MOLT-4 leukemia = system: MOLT-4 leukemia
HOP-18 NSCLC = system: HOP-18 NSCLC
SK-MEL-5 melanoma = system: SK-MEL-5 melanoma
SF-268 CNS = system: SF-268 CNS
LOX IMVI melanoma = system: LOX IMVI melanoma
HOP-62 NSCLC = system: HOP-62 NSCLC
NCI-H522 lung = system: NCI-H522 lung
A549 NSCLC = system: A549 NSCLC
SW-620 colon = system: SW-620 colon
DMS 273 small cell lung = system: DMS 273 small cell lung
NCI-H460 lung = system: NCI-H460 lung
UACC-257 melanoma = system: UACC-257 melanoma
NCI-H23 lung = system: NCI-H23 lung
SK-MEL-2 melanoma = system: SK-MEL-2 melanoma
ACHN renal = system: ACHN renal
SF-539 CNS = system: SF-539 CNS
IGROV1 ovarian = system: IGROV1 ovarian
MALME-3M melanoma = system: MALME-3M melanoma
HCT-116 colon = system: HCT-116 colon
TK-10 renal = system: TK-10 renal
RXF-631 renal = system: RXF-631 renal
UACC-62 melanoma = system: UACC-62 melanoma
SK-OV-3 ovarian = system: SK-OV-3 ovarian
SNB-19 CNS = system: SNB-19 CNS
M14 melanoma = system: M14 melanoma
SNB-75 CNS = system: SNB-75 CNS
OVCAR-4 ovarian = system: OVCAR-4 ovarian
A498 renal = system: A498 renal
RPMI-8226 leukemia = system: RPMI-8226 leukemia
UO-31 renal = system: UO-31 renal
SNB-78 CNS = system: SNB-78 CNS

Cn1c(C2CCCc3c2c2ccccc2n3C)cc2ccccc21 (stereo not given)
TGI (OVCAR-8 ovarian): > 318 µM
TGI (SR leukemia): > 318 µM
TGI (HCC-2998 colon): > 318 µM
TGI (CCRF-CEM leukemia): > 318 µM
TGI (DMS 114 small cell lung): > 318 µM
TGI (HCT-15 colon): > 318 µM
TGI (NCI-H226 lung): > 318 µM
TGI (HT29 colon): > 318 µM
TGI (CAKI-1 renal): > 318 µM
TGI (RXF 393 renal): > 318 µM
TGI (LXFL 529 NSCLC): > 318 µM
TGI (KM12 colon): > 318 µM
TGI (786-0 renal): > 318 µM
TGI (SN12C renal): > 318 µM
TGI (HOP-92 NSCLC): 299 µM
TGI (OVCAR-3 ovarian): > 318 µM
TGI (KM20L2 colon): > 318 µM
TGI (M19-MEL melanoma): > 318 µM
TGI (COLO 205 colon): > 318 µM
TGI (EKVX NSCLC): > 318 µM
TGI (DLD-1 colon): > 318 µM
TGI (HL-60(TB) leukemia): > 318 µM
TGI (K-562 leukemia): > 318 µM
TGI (SF-295 CNS): > 318 µM
TGI (SK-MEL-28 melanoma): > 318 µM
TGI (U251 CNS): > 318 µM
TGI (OVCAR-5 ovarian): > 318 µM
TGI (MOLT-4 leukemia): > 318 µM
TGI (HOP-18 NSCLC): > 318 µM
TGI (SK-MEL-5 melanoma): > 318 µM
TGI (SF-268 CNS): > 318 µM
TGI (LOX IMVI melanoma): > 318 µM
TGI (HOP-62 NSCLC): > 318 µM
TGI (NCI-H522 lung): 142 µM
TGI (A549 NSCLC): > 318 µM
TGI (SW-620 colon): > 318 µM
TGI (DMS 273 small cell lung): > 318 µM
TGI (NCI-H460 lung): > 318 µM
TGI (UACC-257 melanoma): > 318 µM
TGI (NCI-H23 lung): > 318 µM
TGI (SK-MEL-2 melanoma): > 318 µM
TGI (ACHN renal): > 318 µM
TGI (SF-539 CNS): > 318 µM
TGI (IGROV1 ovarian): > 318 µM
TGI (MALME-3M melanoma): > 318 µM
TGI (HCT-116 colon): > 318 µM
TGI (TK-10 renal): > 318 µM
TGI (RXF-631 renal): > 318 µM
TGI (UACC-62 melanoma): > 318 µM
TGI (SK-OV-3 ovarian): > 318 µM
TGI (SNB-19 CNS): > 318 µM

NCCCNC(=O)c1csc(NC(=O)c2csc(NC(=O)CCCN)n2)n1
TGI (M14 melanoma): > 100 µM
TGI (OVCAR-8 ovarian): > 100 µM
TGI (SR leukemia): > 100 µM
TGI (HCC-2998 colon): > 100 µM
TGI (CCRF-CEM leukemia): > 100 µM
TGI (DMS 114 small cell lung): > 100 µM
TGI (HCT-15 colon): > 100 µM
TGI (NCI-H226 lung): > 100 µM
TGI (SNB-75 CNS): > 100 µM
TGI (HT29 colon): > 100 µM
TGI (CAKI-1 renal): > 100 µM
TGI (OVCAR-4 ovarian): 44 µM
TGI (LXFL 529 NSCLC): > 100 µM
TGI (KM12 colon): > 100 µM
TGI (A498 renal): > 100 µM
TGI (786-0 renal): > 100 µM
TGI (SN12C renal): > 100 µM
TGI (HOP-92 NSCLC): > 100 µM
TGI (OVCAR-3 ovarian): > 100 µM
TGI (KM20L2 colon): > 100 µM
TGI (M19-MEL melanoma): > 100 µM
TGI (RPMI-8226 leukemia): > 100 µM
TGI (COLO 205 colon): > 100 µM
TGI (EKVX NSCLC): > 100 µM
TGI (DLD-1 colon): > 100 µM
TGI (HL-60(TB) leukemia): > 100 µM
TGI (K-562 leukemia): > 100 µM
TGI (SF-295 CNS): > 100 µM
TGI (SK-MEL-28 melanoma): > 100 µM
TGI (U251 CNS): > 100 µM
TGI (UO-31 renal): > 100 µM
TGI (OVCAR-5 ovarian): > 100 µM
TGI (MOLT-4 leukemia): > 100 µM
TGI (HOP-18 NSCLC): > 100 µM
TGI (SK-MEL-5 melanoma): > 100 µM
TGI (SF-268 CNS): > 100 µM
TGI (HOP-62 NSCLC): > 100 µM
TGI (NCI-H522 lung): > 100 µM
TGI (A549 NSCLC): > 100 µM
TGI (DMS 273 small cell lung): > 100 µM
TGI (NCI-H460 lung): > 100 µM
TGI (UACC-257 melanoma): > 100 µM
TGI (NCI-H23 lung): > 100 µM
TGI (SK-MEL-2 melanoma): > 100 µM
TGI (ACHN renal): > 100 µM
TGI (SF-539 CNS): > 100 µM
TGI (IGROV1 ovarian): > 100 µM
TGI (MALME-3M melanoma): > 100 µM
TGI (HCT-116 colon): > 100 µM
TGI (TK-10 renal): > 100 µM
TGI (RXF-631 renal): > 100 µM
TGI (UACC-62 melanoma): > 100 µM
TGI (SK-OV-3 ovarian): > 100 µM
TGI (SNB-78 CNS): > 100 µM
